Assay results as given in patent publication US12371426B2, “Pyridazine derivatives as SMARCA2/4 degraders” (Aurigene Discovery Technologies Limited, priority 2018, dated 2025).

tested on: NCI-H929 cells; test: Anti proliferative activity in NCI-H929 cell line by Cell Titer Glo assay; assay type: cell-based; conditions: Homo sapiens, 72 h, 3 days compound incubation, CellTiter Glo, read-out: Anti-proliferative activity IC50 group (NCI-H929 cells)
Method: Determination of Anti Proliferative Activity of Compounds in NCI-H929 and NCI-H838 Cell Lines by Cell Titer Glo® (promega) assay:
NCI-H929 (ATCC CRL-9068) or NCI-H838 (ATCC CRL-5844) cells were seeded in 96 well plate flat black clear bottom plates (Corning, Cat. No 3904) using complete RPMI-1640 media. Next day, compounds listed in the present invention were added to cells from 10 mM stocks made in DMSO (Sigma Cat no. D2650). Each concentration of compound was tested in triplicate with DMSO concentration at a final percentage not exceeding 0.3 in the cells. After the compound incubation (3 days for H929 and 8 days for H838) assay was terminated using 50 μl of CellTiter Glo® reagent (Promega, Cat. no G7572). CellTiter Glo® Luminescent reagent determines the number of viable cells based on quantitation of ATP present which is an indicator of cell number and metabolic activity. Luminescence readings were taken in Victor-3 instrument. Percent inhibition of proliferation was calculated using formula, % inhibition=100−(luminescence value of test/luminescence value of DMSO control)*100. DMSO control (0%)=Cells in complete media with DMSO; blank=Media alone containing DMSO. IC50 was calculated using graph pad prism software.
Herein group “A” refers to IC50 value lower than 1 μM, “B” refers to IC50 value between 1-10 μM (both inclusive) and “C” refers to IC50 value higher than 10 μM or less than 50% activity at 10 μM.

`COC(=O)c1cc(N2CCN(CC(=O)N[C@H](C(=O)N3C[C@H](O)C[C@H]3C(=O)N[C@@H](C)c3ccc(-c4scnc4C)cc3)C(C)(C)C)CC2)c(N)nn1` [Compound 72, methyl 6-amino-5-(4-(2-(((S)-1-((2S,4R)-4-hydroxy-2-(((S)-1-(4-(4-methylthiazol-5-yl)phenyl)ethyl)carbamoyl)pyrrolidin-1-yl)-3,3-dimethyl-1-oxobutan-2-yl)amino)-2-oxoethyl)piperazin-1-yl)pyridazine-3-carboxylate] and `Cc1ncsc1-c1ccc([C@H](C)NC(=O)[C@@H]2C[C@@H](O)CN2C(=O)[C@@H](NC(=O)CN2CCN(c3cc(C(=O)O)nnc3N)CC2)C(C)(C)C)cc1` [Compound 73, 6-amino-5-(4-(2-(((S)-1-((2S,4R)-4-hydroxy-2-(((S)-1-(4-(4-methylthiazol-5-yl)phenyl)ethyl)carbamoyl)pyrrolidin-1-yl)-3,3-dimethyl-1-oxobutan-2-yl)amino)-2-oxoethyl)piperazin-1-yl)pyridazine-3-carboxylic acid] cannot be ordered by IC50: over 10 µM for the first, over 10 µM for the second.

First: Cc1ncsc1-c1ccc([C@H](C)NC(=O)[C@@H]2C[C@@H](O)CN2C(=O)[C@@H](NC(=O)CN2CCN(c3cc(-c4ccccc4Cl)nnc3N)CC2)C(C)(C)C)cc1 [Compound 89]
Second: Cc1ncsc1-c1ccc([C@H](C)NC(=O)[C@@H]2C[C@H](O)CN2C(=O)[C@@H](NC(=O)CN2CCN(c3cc(-c4ccccc4O)nnc3N)CC2)C(C)(C)C)cc1 [Compound 106]
The IC50 of the first is higher: over 10 µM for the first, 1 to 10 µM for the second. The second is the more potent here.

`Cc1ncsc1-c1ccc([C@H](C)NC(=O)[C@@H]2C[C@@H](O)CN2C(=O)[C@@H](NC(=O)CC2CCN(c3cc(-c4ccccc4F)nnc3N)CC2)C(C)(C)C)cc1` [Compound 97] and `Cc1ncsc1-c1ccc([C@H](C)NC(=O)[C@@H]2C[C@@H](O)CN2C(=O)[C@@H](NC(=O)CC2CN(c3cc(-c4ccccc4O)nnc3N)C2)C(C)(C)C)cc1` [Compound 104] fall in the same range of IC50: 1 to 10 µM for the first, 1 to 10 µM for the second.

`Cc1ncsc1-c1ccc(CNC(=O)[C@@H]2C[C@H](O)CN2C(=O)[C@@H](NC(=O)CN2CCN(c3cc(-c4ccccc4O)nnc3N)CC2)C(C)(C)C)cc1` [Compound 105] and `Cc1ncsc1-c1ccc([C@H](C)NC(=O)[C@@H]2C[C@@H](F)CN2C(=O)[C@@H](NC(=O)CN2CCN(c3cc(-c4ccccc4O)nnc3N)CC2)C(C)(C)C)cc1` [Compound 107] fall in the same range of IC50: 1 to 10 µM for the first, 1 to 10 µM for the second.

`Cc1ncsc1-c1ccc([C@H](C)NC(=O)[C@@H]2C[C@@H](O)CN2C(=O)[C@@H](NC(=O)CCCCC(=O)N2CCN(c3cc(-c4ccccc4O)nnc3N)CC2)C(C)(C)C)cc1` [Compound 110] and `Cc1ncsc1-c1ccc([C@H](C)NC(=O)[C@@H]2C[C@@H](O)CN2C(=O)[C@@H](NC(=O)CCCCCC(=O)N2CCN(c3cc(-c4ccccc4O)nnc3N)CC2)C(C)(C)C)cc1` [Compound 112] cannot be ordered by IC50: under 1 µM for the first, under 1 µM for the second.

First: Cc1ncsc1-c1ccc([C@H](C)NC(=O)[C@@H]2C[C@@H](O)CN2C(=O)[C@@H](NC(=O)CCCCCCCC(=O)N2CCN(c3cc(-c4ccccc4O)nnc3N)CC2)C(C)(C)C)cc1 [Compound 111]
Second: Cc1ncsc1-c1ccc([C@H](C)NC(=O)[C@@H]2C[C@H](O)CN2C(=O)[C@@H](NC(=O)CCCCCCC(=O)N2CCN(c3cc(-c4ccccc4O)nnc3N)CC2)C(C)(C)C)cc1 [Compound 115]
The IC50 of the first is lower: under 1 µM for the first, 1 to 10 µM for the second.

First: Cc1ncsc1-c1ccc([C@H](C)NC(=O)[C@@H]2C[C@@H](O)CN2C(=O)[C@@H](NC(=O)CCCCCNC(=O)C2CCN(c3cc(-c4ccccc4O)nnc3N)CC2)C(C)(C)C)cc1 [Compound 113]
Second: Cc1ncsc1-c1ccc([C@H](C)NC(=O)[C@@H]2C[C@@H](O)CN2C(=O)[C@@H](NC(=O)CCCC(=O)N2CCN(c3cc(-c4ccccc4O)nnc3N)CC2)C(C)(C)C)cc1 [Compound 114]
The IC50 of the first is lower: 1 to 10 µM for the first, over 10 µM for the second.

molecular target: SMARCA2 (Homo sapiens, UniProt P51531); test: SMARCA2 degradation in NCI-H838 cells by Western blot; assay type: cell-based; design: endogenous in cells; host or cells: NCI-H838 (ATCC CRL-5844); conditions: 16 hours
Sequence (P51531 whole entry): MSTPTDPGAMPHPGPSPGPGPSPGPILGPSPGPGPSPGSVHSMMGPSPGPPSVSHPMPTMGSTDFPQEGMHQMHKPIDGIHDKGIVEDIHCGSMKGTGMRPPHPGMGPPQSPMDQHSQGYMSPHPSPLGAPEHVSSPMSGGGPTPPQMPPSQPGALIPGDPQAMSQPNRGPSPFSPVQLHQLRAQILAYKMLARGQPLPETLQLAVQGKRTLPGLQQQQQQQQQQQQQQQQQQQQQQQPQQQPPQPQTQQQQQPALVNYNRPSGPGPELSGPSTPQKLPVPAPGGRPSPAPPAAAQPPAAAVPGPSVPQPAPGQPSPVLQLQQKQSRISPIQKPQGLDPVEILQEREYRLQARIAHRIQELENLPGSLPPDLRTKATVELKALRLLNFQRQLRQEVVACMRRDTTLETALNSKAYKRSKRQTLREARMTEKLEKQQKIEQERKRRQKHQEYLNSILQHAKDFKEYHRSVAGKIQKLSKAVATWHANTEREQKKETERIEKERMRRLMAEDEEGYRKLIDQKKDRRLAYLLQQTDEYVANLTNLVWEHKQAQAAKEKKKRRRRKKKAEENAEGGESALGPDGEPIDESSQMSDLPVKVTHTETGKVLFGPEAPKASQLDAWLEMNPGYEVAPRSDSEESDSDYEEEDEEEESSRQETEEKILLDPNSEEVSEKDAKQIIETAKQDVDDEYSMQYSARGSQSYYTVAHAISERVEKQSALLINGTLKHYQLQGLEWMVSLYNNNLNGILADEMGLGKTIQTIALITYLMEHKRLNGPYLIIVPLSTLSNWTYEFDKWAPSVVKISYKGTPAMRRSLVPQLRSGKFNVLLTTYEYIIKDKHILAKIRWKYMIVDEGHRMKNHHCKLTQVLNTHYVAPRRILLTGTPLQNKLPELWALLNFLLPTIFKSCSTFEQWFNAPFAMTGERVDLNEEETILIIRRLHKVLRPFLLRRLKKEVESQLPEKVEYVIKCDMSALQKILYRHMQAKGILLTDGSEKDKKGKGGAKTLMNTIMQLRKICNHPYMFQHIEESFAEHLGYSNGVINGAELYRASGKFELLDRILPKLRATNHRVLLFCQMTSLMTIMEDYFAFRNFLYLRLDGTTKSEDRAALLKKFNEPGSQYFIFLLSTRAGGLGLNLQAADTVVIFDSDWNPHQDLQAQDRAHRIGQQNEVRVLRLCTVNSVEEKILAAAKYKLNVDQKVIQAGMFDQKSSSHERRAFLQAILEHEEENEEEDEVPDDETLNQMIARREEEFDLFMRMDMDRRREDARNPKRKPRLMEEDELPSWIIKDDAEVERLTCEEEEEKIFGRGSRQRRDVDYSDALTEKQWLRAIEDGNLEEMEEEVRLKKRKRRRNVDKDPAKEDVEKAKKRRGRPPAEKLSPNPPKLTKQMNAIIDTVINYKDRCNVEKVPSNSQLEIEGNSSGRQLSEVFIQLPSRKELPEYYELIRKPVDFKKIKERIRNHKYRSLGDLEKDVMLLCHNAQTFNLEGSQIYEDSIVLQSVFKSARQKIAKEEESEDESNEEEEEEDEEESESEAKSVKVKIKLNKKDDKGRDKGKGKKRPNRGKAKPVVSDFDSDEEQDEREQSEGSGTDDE
Method: Determination of SMARCA2 Degradation in NCI-1H838 Cells by Western Blot:
NCI-1H838 (ATCC CRL-5844) was plated in 6 well plates using complete RPMI-1640 media. Next day, compounds of present invention were added to cells from 10 mM stocks made in DMSO (Sigma Cat no. D2650). Each concentration of compound was tested with DMSO concentration not exceeding a final percentage of 0.3 in the cells. Cells were incubated with the compound for 16 hours followed by harvesting with 1× RIPA lysis buffer (Thermo Fischer, catalogue number #89900) containing protease inhibitor cocktail (Sigma catalogue number #P-8340). Equal amount of protein was loaded on SIDS PAGE gel for electrophoresis. Western blot was carried out for detection of SMARCA2 with antibody (Cell signaling technologies, catalogue number #11966). Beta Actin (Santa Cruz, catalogue number #69879) was used as loading control. Percentage of SMARCA2 degradation was calculated using formula % degradation=100−(normalized band intensity in treated sample/normalized band intensity in DMSO sample)*100”.
Selected compounds of the present invention were screened in the above mentioned assay procedures for determination of % SMARCA2 degradation at 100 nM and the results are summarized in below table 31.

Compared with `Cc1ncsc1-c1ccc(C(NC(=O)[C@@H]2C[C@@H](O)CN2C(=O)[C@@H](NC(=O)CC2CCN(c3cc(-c4cccc(F)c4O)nnc3N)CC2)C(C)(C)C)C(F)(F)F)cc1` (single isomer, unassigned) [Compound 77], `Cc1ncsc1-c1ccc([C@H](C)NC(=O)[C@@H]2C[C@@H](O)CN2C(=O)[C@@H](NC(=O)OC2CCN(c3cc(-c4ccccc4O)nnc3N)CC2)C(C)(C)C)cc1` [Compound 80] is higher in “SMARCA2 @ 100 nM (% SMARCA2 degradation)” value: 9% for the first, 13% for the second.

Going from `Cc1ncsc1-c1ccc(C(NC(=O)[C@@H]2C[C@@H](O)CN2C(=O)[C@@H](NC(=O)CC2CCN(c3cc(-c4cccc(F)c4O)nnc3N)CC2)C(C)(C)C)C(F)(F)F)cc1` (single isomer, unassigned) [Compound 78] to `Cc1ncsc1-c1ccc([C@H](C)NC(=O)[C@@H]2C[C@@H](O)CN2C(=O)[C@@H](NC(=O)CN2CCN(c3cc(-c4ccccc4O)nnc3N)CC2)C(C)(C)C)cc1.Cl` [Compound 65, (2S,4R)-1-((S)-2-(2-(4-(3-amino-6-(2-hydroxyphenyl)pyridazin-4-yl)piperazin-1-yl)acetamido)-3,3-dimethylbutanoyl)-4-hydroxy-N—((S)-1-(4-(4-methylthiazol-5-yl)phenyl)ethyl)pyrrolidine-2-carboxamide hydrochloride], the “SMARCA2 @ 100 nM (% SMARCA2 degradation)” value rises from 26% to 94%.

Going from `Cc1ncsc1-c1ccc([C@H](C)NC(=O)[C@@H]2C[C@@H](O)CN2C(=O)[C@@H](NC(=O)Cn2cc(-c3cc(-c4cccc(F)c4O)nnc3N)cn2)C(C)(C)C)cc1` [Compound 62, (2S,4R)-1-((S)-2-(2-(4-(3-amino-6-(3-fluoro-2-hydroxyphenyl)pyridazin-4-yl)-1H-pyrazol-1-yl)acetamido)-3,3-dimethylbutanoyl)-4-hydroxy-N—((S)-1-(4-(4-methylthiazol-5-yl)phenyl)ethyl)pyrrolidine-2-carboxamide] to `Cc1ncsc1-c1ccc([C@H](C)NC(=O)[C@@H]2C[C@@H](O)CN2C(=O)[C@@H](NC(=O)CN2CCN(c3cc(-c4ccccc4N)nnc3N)CC2)C(C)(C)C)cc1` [Compound 93], the “SMARCA2 @ 100 nM (% SMARCA2 degradation)” value rises from 27% to 74%.

First: Nc1nnc(-c2ccccc2O)cc1N1CCN(CCC(=O)Nc2cccc3c2C(=O)N(C2CCC(=O)NC2=O)C3=O)CC1 (stereo not drawn) [Compound 69]
Second: Nc1nnc(-c2ccccc2O)cc1N1CCN(CCCC(=O)Nc2cccc3c2C(=O)N(C2CCC(=O)NC2=O)C3=O)CC1 (stereo not drawn) [Compound 70]
The “SMARCA2 @ 100 nM (% SMARCA2 degradation)” value of the first is higher: 12% for the first, -11% for the second.

Going from `Cc1ncsc1-c1ccc([C@H](C)NC(=O)[C@@H]2C[C@@H](O)CN2C(=O)[C@@H](NC(=O)CN2CCN(c3cc(C(N)=O)nnc3N)CC2)C(C)(C)C)cc1` [Compound 74, 6-amino-5-(4-(2-(((S)-1-((2S,4R)-4-hydroxy-2-(((S)-1-(4-(4-methylthiazol-5-yl)phenyl)ethyl)carbamoyl)pyrrolidin-1-yl)-3,3-dimethyl-1-oxobutan-2-yl)amino)-2-oxoethyl)piperazin-1-yl)pyridazine-3-carboxamide] to `CNC(=O)c1cc(N2CCN(CC(=O)N[C@H](C(=O)N3C[C@H](O)C[C@H]3C(=O)N[C@@H](C)c3ccc(-c4scnc4C)cc3)C(C)(C)C)CC2)c(N)nn1` [Compound 75, 6-amino-5-(4-(2-(((S)-1-((2S,4R)-4-hydroxy-2-(((S)-1-(4-(4-methylthiazol-5-yl)phenyl)ethyl)carbamoyl)pyrrolidin-1-yl)-3,3-dimethyl-1-oxobutan-2-yl)amino)-2-oxoethyl)piperazin-1-yl)-N-methylpyridazine-3-carboxamide], the “SMARCA2 @ 100 nM (% SMARCA2 degradation)” value falls from 21% to 12%.
